Values quoted from earlier work in PMC12359172, “Cell and tissue reprogramming: Unlocking a new era in medical drug discovery” (Pharmacological Reviews, 2025).

Assays:
[1] = tested on: AMD iPSC-derived RPE cells; set-up: method as in PMID 35056119, PMID 33918210; conditions: ref [431],[432]
[2] = tested on: human dermal fibroblasts / primary human cardiac fibroblasts; conditions: for effect on cardiac fibroblast reprogramming: alongside MEF2C and TBX5 (MT), chemical screen of 2000 compounds, ref [472]; for reprogramming efficiency: HDF with GATA4, MEF2C, TBX5, MYOCD, NKX2-5, miR-1 and miR-133a plus small molecules, ref [468]
[3] = set-up: method as in PMID 10066283, PMID 9704384; conditions: ref [843],[844]
Müller glia (MG) = conditions: NMDA-induced injury, intraperitoneal injection as printed; ref [333]
[4] = tested on: skin fibroblasts from patients with ALS, HFFs, FAD fibroblasts; conditions: human induced motor neuron model, chemical screen; ref [508]
[5] = tested on: SMA iPSC-derived motor neurons; set-up: method as in PMID 19098894; conditions: ref [391]
[6] = set-up: method as in PMID 32392694, PMID 27490705; conditions: ref [392],[393]
[7] = tested on: iPSC-derived cardiac organoid; set-up: method as in PMID 32284552; conditions: ref [442]
[8] = tested on: iPSC-derived cardiomyocytes (KCNQ1/TRPM4 mutation); conditions: ref [413]
YAP = tested on: YAP; set-up: method as in PMID 33888614; conditions: ref [139]

NC(=O)c1ncn([C@@H]2O[C@H](COP(=O)(O)O)[C@@H](O)[C@H]2O)c1N [5-aminoimidazole-4-carboxamide ribonucleotide]
effect on mitochondrial function [1]: improved mitochondrial function

CCS(=O)(=O)N1CC(CC#N)(n2cc(-c3ncnc4[nH]ccc34)cn2)C1 [Baricitinib]
effect on cardiac fibroblast reprogramming [2]: significantly improved reprogramming efficiency and promoted spontaneous contractile activity

O=c1[nH]c(=O)n([C@H]2C[C@H](O)[C@@H](CO)O2)cc1Br [BrdU, bromodeoxyuridine]
developmental toxicity [3]: dose-dependent genetic and neurologic developmental defects

Cc1c[nH]c(-c2cnc(NCCNc3ccc(C#N)cn3)nc2-c2ccc(Cl)cc2Cl)n1 [CHIR99021]
reprogramming efficiency [2]: < 25%

COCCOc1ccc(-c2cn(-c3ccccc3)c3nc[nH]c(=O)c23)cc1 [DMX-5804]
effect on Müller glia (Müller glia (MG)): promoted MG proliferation and conversion to a retinal progenitor cell–like state

CC(C)(C)c1nc2c3cc[nH]c(=O)c3c3cc(F)ccc3c2[nH]1 [JAK1 inhibitor (EMD4Biosciences; 420099)]
reprogramming efficiency [2]: < 25%

O=C1Cc2c([nH]c3ccc(Br)cc23)-c2ccccc2N1 [Kenpaullone]
rescue of ALS-specific disease characteristics [4]: rescuing ALS-specific disease characteristics, including restoring electrophysiological activity and the ability to form NMJs

CN(C)C(=N)N=C(N)N [Metformin]
effect on mitochondrial function [1]: improved mitochondrial function

NC(=O)c1ccc(-c2nc(-c3ccc4c(c3)OCO4)c(-c3ccccn3)[nH]2)cc1 [SB431542]
effect on cardiac fibroblast reprogramming [2]: significantly improved reprogramming efficiency and promoted spontaneous contractile activity

CCCC(CCC)C(=O)O [VPA, valproic acid]
drug screening outcome [5]: potential treatments | clinical trial outcome [6]: failed in clinical trials

Oc1nc(-c2ccc(C(F)(F)F)cc2)nc2c1CSCC2 [Xav939]
iCM function ([2]; MST cocktail (MYOCD, SMAD6, TBX20) combined with FGF2 and XAV939, primary human cardiac fibroblasts, ref [536]): spontaneous contractions and calcium transients

COc1cccc2c1C(=O)c1c(O)c3c(c(O)c1C2=O)C[C@@](O)(C(=O)CO)C[C@@H]3O[C@H]1C[C@H](N)[C@H](O)[C@H](C)O1 [doxorubicin]
cardiotoxicity detected by model [7]: cardiotoxic effects

NC[C@H]1O[C@H](O[C@H]2[C@H](O)[C@@H](O[C@H]3O[C@H](CO)[C@@H](O)[C@H](N)[C@H]3O)[C@H](N)C[C@@H]2N)[C@H](N)C[C@@H]1O [tobramycin]
drug screening outcome [5]: potential treatments

COc1ccc(CCN(C)CCCC(C#N)(c2ccc(OC)c(OC)c2)C(C)C)cc1OC (stereo not shown) [verapamil]
drug screening outcome [8]: potential treatment

verteporfin
fibroblast-mediated regeneration (YAP): enhance fibroblast-mediated regeneration, improving mechanical strength and reducing scarring
